As a reminder, the IC50 is the midpoint of a concentration-inhibition curve.

Sequence of human PAD4 (hPAD4) (Q9UM07 whole entry): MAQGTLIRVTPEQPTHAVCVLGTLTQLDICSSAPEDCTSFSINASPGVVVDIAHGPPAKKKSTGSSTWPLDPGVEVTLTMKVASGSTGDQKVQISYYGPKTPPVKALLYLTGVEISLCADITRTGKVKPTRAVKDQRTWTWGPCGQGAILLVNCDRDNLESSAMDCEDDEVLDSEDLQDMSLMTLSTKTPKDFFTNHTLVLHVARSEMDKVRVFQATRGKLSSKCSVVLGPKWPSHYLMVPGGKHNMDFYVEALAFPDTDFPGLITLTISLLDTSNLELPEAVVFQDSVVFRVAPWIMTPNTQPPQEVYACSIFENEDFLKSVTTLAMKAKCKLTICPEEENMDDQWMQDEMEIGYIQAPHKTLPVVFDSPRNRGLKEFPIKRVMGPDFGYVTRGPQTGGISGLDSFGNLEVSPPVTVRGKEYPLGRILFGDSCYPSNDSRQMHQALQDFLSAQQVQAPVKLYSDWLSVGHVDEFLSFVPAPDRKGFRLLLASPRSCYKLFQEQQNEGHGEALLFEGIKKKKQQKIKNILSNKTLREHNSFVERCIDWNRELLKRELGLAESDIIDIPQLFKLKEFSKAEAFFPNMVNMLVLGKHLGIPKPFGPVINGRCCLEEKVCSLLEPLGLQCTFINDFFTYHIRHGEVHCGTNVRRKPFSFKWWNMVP

The target in the test is human PAD4 (hPAD4) (Homo sapiens, UniProt Q9UM07). The test can be described thus: RFMS Human PAD4 Functional Assay. Format: biochemical. The following applies: hPAD4 RFMS IC50, human PAD4, rapid-fire mass spectrum (RFMS) assay; 5 nM hPAD4, 250 μM BAEE. The procedure:
RFMS Human PAD4 Functional Assay:
Compounds were solubilized in 100% DMSO to achieve a 10 mM compound concentration. Compound stock solutions were stored at RT. A series of dilutions were prepared in DMSO and mixed 8 times with 20 μL mixing volume. Final top concentration of compound in the assay is 50 μM.
0.13 μL of compound solution was added to 13 μL of 10 nM PAD4 in assay buffer. After 30 min 13 μl of 500 μM of BAEE was added in 25 mM hepes, pH 7.5, 5 mM NaCl, 1 mM DTT, 0.2 mg/ml BSA, 0.01% CHAPS, 50 μM Calcium, 5 μM TPEN was added and the reaction incubated for 90 min at 37° C. The enzymatic reaction was quenched by addition of 15 μl of 6.1N TCA, 100% Final Concentration is 20%, 35 μl of 8.5 mM phenyl glyoxal (final concentration 4 mM) is then added and the reaction is incubated for 30 min at 37° C.
After 30 minutes the plates are spun down to remove all precipitate. The enzyme reaction was quenched with an equal volume of methanol containing internal standard (modified citrulline). Samples were loaded onto the Rapid Fire RF300 system (Agilent) wherein they were first sipped for 1000 ms and then directly loaded to a C18 separations cartridge using a mixture of acetonitrile containing 0.01% formic acid for 3000 ms desalting. The flow rate of the mobile phase was 1.5 ml/min.
The dwell time for each transition was set at 200 ms, and the ESI voltage was used at 5500 with a source temperature of 400° C. Extracted ion peaks for each transition were integrated using the Rapid Fire Integrator software. Peak area of analyte was normalized with internal standard.).
`COc1cc(C(=O)N2C[C@H]3CC[C@@H]2[C@@H]3N)cc2nc(-c3cc4cccc(CCCCCN)c4n3CC3CC3)n(C)c12` [Example 16, (1R,4R,7R)-2-{2-[7-(5-aminopentyl)-1-(cyclopropylmethyl)-1H-indol-2-yl]-7-methoxy-1-methyl-1H-1,3-benzodiazole-5-carbonyl}-2-azabicyclo[2.2.1]heptan-7-amine] returned a half-inhibitory concentration (IC50) of 39 nM. The compound `COc1cc(C(=O)N2C[C@H]3CC[C@@H]2[C@@H]3N)cc2nc(-c3cc4cccc(CCCCCCN)c4n3CC3CC3)n(C)c12` [Example 17, (1R,4R,7R)-2-{2-[7-(6-aminohexyl)-1-(cyclopropylmethyl)-1H-indol-2-yl]-7-methoxy-1-methyl-1H-1,3-benzodiazole-5-carbonyl}-2-azabicyclo[2.2.1]heptan-7-amine] had an IC50 of 56 nM.

For `COc1cc(C(=O)N2C[C@H]3CC[C@@H]2[C@@H]3N)cc2nc(-c3cc4cccc(CCC#N)c4n3CC3CC3)n(C)c12` [Example 19, 3-(2-{5-[(1R,4R,7R)-7-amino-2-azabicyclo[2.2.1]heptane-2-carbonyl]-7-methoxy-1-methyl-1H-1,3-benzodiazol-2-yl}-1-(cyclopropylmethyl)-1H-indol-7-yl)propanenitrile], 90 nM corresponded to half-maximal inhibition (IC50). For `COc1cc(C(=O)N2C[C@H]3CC[C@@H]2[C@@H]3N)cc2nc(-c3cc4cccc(CCC(N)=O)c4n3CC3CC3)n(C)c12` [Example 20, 3-(2-{5-[(1R,4R,7R)-7-amino-2-azabicyclo[2.2.1]heptane-2-carbonyl]-7-methoxy-1-methyl-1H-1,3-benzodiazol-2-yl}-1-(cyclopropylmethyl)-1H-indol-7-yl)propanamide] the value was 47 nM; for `COc1cc(C(=O)N2C[C@H]3CC[C@@H]2[C@@H]3N)cc2nc(-c3cc4cccc(CCC(C)(C)O)c4n3CC3CC3)n(C)c12` [Example 21, 4-(2-{5-[(1R,4R,7R)-7-amino-2-azabicyclo[2.2.1]heptane-2-carbonyl]-7-methoxy-1-methyl-1H-1,3-benzodiazol-2-yl}-1-(cyclopropylmethyl)-1H-indol-7-yl)-2-methylbutan-2-ol], 86 nM; for `COc1cc(C(=O)N2C[C@H]3CC[C@@H]2[C@@H]3N)cc2nc(-c3cc4cccc(C5CN(C)C5)c4n3CC3CC3)n(C)c12` [Example 22, (1R,4R,7R)-2-{2-[1-(cyclopropylmethyl)-7-(1-methylazetidin-3-yl)-1H-indol-2-yl]-7-methoxy-1-methyl-1H-1,3-benzodiazole-5-carbonyl}-2-azabicyclo[2.2.1]heptan-7-amine], 42 nM. Under `COc1cc(C(=O)N2C[C@H]3CC[C@@H]2[C@@H]3N)cc2nc(-c3cc4cccc(CCN5CCOC5=O)c4n3CC3CC3)n(C)c12` [Example 23, 3-[2-(2-{5-[(1R,4R,7R)-7-amino-2-azabicyclo[2.2.1]heptane-2-carbonyl]-7-methoxy-1-methyl-1H-1,3-benzodiazol-2-yl}-1-(cyclopropylmethyl)-1H-indol-7-yl)ethyl]-1,3-oxazolidin-2-one] stands 120 nM; under `COc1cc(C(=O)N2C[C@H]3CC[C@@H]2[C@@H]3N)cc2nc(-c3cc4cccc(C5CCC(O)CC5)c4n3CC3CC3)n(C)c12` (stereo partly drawn) [Example 24, 4-(2-{5-[(1R,4R,7R)-7-amino-2-azabicyclo[2.2.1]heptane-2-carbonyl]-7-methoxy-1-methyl-1H-1,3-benzodiazol-2-yl}-1-(cyclopropylmethyl)-1H-indol-7-yl)cyclohexan-1-ol], 61 nM. For `COc1cc(C(=O)N2C[C@H]3CC[C@@H]2[C@@H]3N)cc2nc(-c3cc4cccc(C5COC5)c4n3CC3CC3)n(C)c12` [Example 25, (1R,4R,7R)-2-{2-[1-(cyclopropylmethyl)-7-(oxetan-3-yl)-1H-indol-2-yl]-7-methoxy-1-methyl-1H-1,3-benzodiazole-5-carbonyl}-2-azabicyclo[2.2.1]heptan-7-amine] the value was 63 nM. `COc1cc(C(=O)N2C[C@H]3CC[C@@H]2[C@@H]3N)cc2nc(-c3cc4cccc(CC5CNC5)c4n3CC3CC3)n(C)c12` [Example 26, (1R,4R,7R)-2-(2-{7-[(azetidin-3-yl)methyl]-1-(cyclopropylmethyl)-1H-indol-2-yl}-7-methoxy-1-methyl-1H-1,3-benzodiazole-5-carbonyl)-2-azabicyclo[2.2.1]heptan-7-amine] yielded an IC50 of 41 nM. Under `COc1cc(C(=O)N2C[C@H]3CC[C@@H]2[C@@H]3N)cc2nc(-c3cc4cccc(CCCS(C)(=O)=O)c4n3CC3CC3)n(C)c12` [Example 27, (1R,4R,7R)-2-{2-[1-(cyclopropylmethyl)-7-(3-methanesulfonylpropyl)-1H-indol-2-yl]-7-methoxy-1-methyl-1H-1,3-benzodiazole-5-carbonyl}-2-azabicyclo[2.2.1]heptan-7-amine] stands 74 nM.

For `COc1cc(C(=O)N2C[C@H]3CC[C@@H]2[C@@H]3N)cc2nc(-c3cc4cccc(C5CCN(C(=O)OCc6ccccc6)C5)c4n3CC3CC3)n(C)c12` (stereo partly drawn) [Example 28, benzyl 3-(2-{5-[(1R,4R,7R)-7-amino-2-azabicyclo[2.2.1]heptane-2-carbonyl]-7-methoxy-1-methyl-1H-1,3-benzodiazol-2-yl}-1-(cyclopropylmethyl)-1H-indol-7-yl)pyrrolidine-1-carboxylate], the IC50 is 67 nM. Under `COc1cc(C(=O)N2C[C@H]3CC[C@@H]2[C@@H]3N)cc2nc(-c3cc4cccc(CCn5cncn5)c4n3CC3CC3)n(C)c12` [Example 29, (1R,4R,7R)-2-{2-[1-(cyclopropylmethyl)-7-[2-(1H-1,2,4-triazol-1-yl)ethyl]-1H-indol-2-yl]-7-methoxy-1-methyl-1H-1,3-benzodiazole-5-carbonyl}-2-azabicyclo[2.2.1]heptan-7-amine] stands 56 nM.

On to `COc1cc(C(=O)N2C[C@H]3CC[C@@H]2[C@@H]3N)cc2nc(-c3cc4cccc(C5CCS(=O)(=O)C5)c4n3CC3CC3)n(C)c12` (stereo partly drawn) [Example 30, ((1R,4R,7R)-7-amino-2-azabicyclo[2.2.1]heptan-2-yl)(2-(1-(cyclopropylmethyl)-7-(1,1-dioxidotetrahydrothiophen-3-yl)-1H-indol-2-yl)-7-methoxy-1-methyl-1H-benzo[d]imidazol-5-yl)methanone], for which the IC50 was found to be 80 nM. For `COc1cc(C(=O)N2C[C@H]3CC[C@@H]2[C@@H]3N)cc2nc(-c3cc4cccc(CC5CCOCC5)c4n3CC3CC3)n(C)c12` [Example 31, (1R,4R,7R)-2-{2-[1-(cyclopropylmethyl)-7-[(oxan-4-yl)methyl]-1H-indol-2-yl]-7-methoxy-1-methyl-1H-1,3-benzodiazole-5-carbonyl}-2-azabicyclo[2.2.1]heptan-7-amine] the value was 198 nM; for `COc1cc(C(=O)N2C[C@H]3CC[C@@H]2[C@@H]3N)cc2nc(-c3cc4cccc(CCC5CCCNC5)c4n3CC3CC3)n(C)c12` (stereo partly drawn) [Example 32, (1R,4R,7R)-2-{2-[1-(cyclopropylmethyl)-7-[2-(piperidin-3-yl)ethyl]-1H-indol-2-yl]-7-methoxy-1-methyl-1H-1,3-benzodiazole-5-carbonyl}-2-azabicyclo[2.2.1]heptan-7-amine], 32 nM.

Values taken from patent publication US20220402950A1, “SUBSTITUTED BENZIMIDAZOLES AS PAD4 INHIBITORS” (BRISTOL-MYERS SQUIBB COMPANY, priority 2018, published 2022).
